# Several values for one entry are separate records, joined by “and”; a condition that tells them apart may be missing. Equal entries are not always repeated. Entries after “also recorded” stand apart in the source; their conditions may differ.
# Assays:
# wild‐type STAT4 = biological target: T1, wild‐type STAT4 (Homo sapiens, UniProt Q14765); assay: Isothermal titration calorimetry (ITC), wild-type STAT4; format: binding; settings: for Kd: ITC, 25 °C, one-site binding model, read-out: K d (ITC), wild-type STAT4
# T1 construct: 6xHis; made in house
# T1 sequence (Q14765 1-748): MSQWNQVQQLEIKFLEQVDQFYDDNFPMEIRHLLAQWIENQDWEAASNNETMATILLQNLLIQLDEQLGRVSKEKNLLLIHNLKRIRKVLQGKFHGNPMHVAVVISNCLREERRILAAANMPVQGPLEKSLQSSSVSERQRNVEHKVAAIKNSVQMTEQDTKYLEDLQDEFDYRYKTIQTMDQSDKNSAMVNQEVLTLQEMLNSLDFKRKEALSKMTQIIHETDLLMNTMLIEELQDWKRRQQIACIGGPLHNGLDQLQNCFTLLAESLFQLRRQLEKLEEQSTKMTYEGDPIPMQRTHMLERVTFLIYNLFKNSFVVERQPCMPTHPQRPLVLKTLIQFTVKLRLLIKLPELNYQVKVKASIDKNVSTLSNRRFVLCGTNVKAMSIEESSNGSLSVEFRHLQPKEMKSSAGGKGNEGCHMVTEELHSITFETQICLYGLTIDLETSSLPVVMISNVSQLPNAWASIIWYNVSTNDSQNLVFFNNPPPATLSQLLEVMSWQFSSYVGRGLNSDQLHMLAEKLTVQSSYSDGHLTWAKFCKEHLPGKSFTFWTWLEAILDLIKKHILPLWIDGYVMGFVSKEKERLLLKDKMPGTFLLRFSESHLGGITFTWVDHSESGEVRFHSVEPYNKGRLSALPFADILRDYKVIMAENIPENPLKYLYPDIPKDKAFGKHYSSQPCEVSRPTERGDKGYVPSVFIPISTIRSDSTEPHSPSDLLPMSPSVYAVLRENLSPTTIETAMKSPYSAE
# Description: Isothermal Titration Calorimetry
# Purification of 6xHis-tagged proteins for ITC experiments was carried out by affinity chromatography on His-Bind resin. The eluting fractions were analyzed by SDS -PAGE.
# Proteins were dialyzed against ITC buffer (10 mM Tris pH 8.0, 50 mM NaCl) using dialysi s tubing with a 50 kDa cut-off. ITC experiments were performed using a VP-ITC Micro Calorimeter (MicroCal). 6m was dissolved as a 100 mM stock in DMSO and diluted 1/1000 in ITC buffer (Tris pH 8.0 and 50 mM NaCl), resulting in a final concentration of 100 µM. 8k was dissolved as a 5 mM stock in ITC buffer and diluted 1/25 in ITC buffer with DMSO, resulting in a final concentration of 200 µM 8k. DMSO was added to a final concentration of 2% (v/v). To avoid errors caused by the detection of dilution heat, 0.1 % (v/v) DMSO for 6m or 2% (v/v) DMSO for 8k experiments was added to the buffers containing the proteins and to the reference buffer. Proteins were degassed before the experiments using a ThermoVac sample degassing station. The following conditions were used for ITC experiments: 10 µM STAT4 protein for 6m or 20 µM STAT4 protein for 8k experiments, 100 µM 6m or 200 µM 8k, 28 injections with 10 µL single injection volume, 250 s initial delay, 500 s spacing between injections, 250 µcal/s reference power, 300 rpm stirring at 25 °C for 6m or 220 rpm stirring at 25 °C for 8k. Data analysis was performed using NITPIC[1, 5] and SEDPHAT,[6] applying a low-noise integration approach. Data were fitted using a one-site binding model. Figures were generated using GUSSI.[7] Experiments were carried out in quadruplicate for 6m and triplicate
# STAT4 [1] = biological target: T2, STAT4 (Homo sapiens, UniProt Q14765); assay: CETSA of STAT4 in lysates from NK-92 cells; format: binding; set-up: utilizing cellular lysates from the STAT4‐expressing natural killer cell line NK‐92; endogenous in cells; host or cells: NK-92 (DSMZ); settings: 100 µM; for ΔT agg of STAT4 / T agg of STAT4 (average): CETSA, NK-92 cell lysates; for ΔT agg of STAT4: versus DMSO control; for T agg of STAT4 (average): DMSO control 48.7 ± 0.5 °C, n = 3; for Tagg (STAT4) 3 independent experiments: individual CETSA experiments, in °C (unit assumed)
# T2 sequence (Q14765 1-748): T1 sequence (Q14765 1-748)
# Description: (§1) NK-92 cells (DSMZ) were cultured in α-MEM containing 12.5% fetal bovine serum (FBS), 12.5% horse serum, 2 mM L-glutamine, penicillin/streptomycin and 50 U/ml IL -2. […]
# NK-92 cell lysates were prepared for CETSA experiments by washing cultured cells once with TBS and resuspending in TBS supplemented with Halt Protease In hibitor Cocktail, EDTA-free (Fisher Scientific) at 3 x 10^6 cells per 100 µl. […]
# CETSA experiments were performed essentially using the published protocol. Briefly, NK-92 cell lysates were incubated with test compound or DMSO for 15 min at room temperature (final DMSO concentration 2%). During this time, the treated lysate was divided into 10x 50 µl aliquots in 0.2 ml reaction tubes. Samples were then heated to the designated temperatures in a Veriti Pro Thermocycler (Thermo Fishe r Scientific) for 3 min, followed by 3 min incubation at room temperature, and then placed on ice. The samples were transferred to 1.5 ml tubes before centrifugation at 20,000 g for 20 min at 4 °C, to remove aggregated proteins. The soluble fractions were subsequently analyzed by Western blotting.
# (§2) The components of cell lysates from treated cells, or heat-treated lysates from CETSA, were separated by SDS-PAGE (10%), transferred to nitrocellulose membrane (Bio-Rad) and detected using monoclonal rabbit primary antibodies (Cell Signaling), α-rabbit-HRP secondary antibody (Dako) and Western Lightning Plus chemiluminescence reagent (Perkin Elmer).
# (§3) Bands were visualized using an ImageQuant system (GE Healthcare) and quantitated using ImageJ software (NIH). […]
# (§4) The sitting drop was composed of 0.1 µl protein solution and 0.1 µl reservoir solution. Plates were stored at 19°C in a protein […]
# (§5) In the first set of experiments, w e tried to crystallize STAT4 as a SUMO -STAT4 fusion protein […]
# (§6) was cleaved off as described above.
# (§7) Screening for crystallization conditions for tag-free STAT4 was performed both in the absence or presence of 1 equivalent of 6m or 6h. Since the chosen protein concentration of 3.6 mg/ml appeared to be too low, screening was repeated with a higher concentration of 6.4 mg/ml STAT4 for all conditions (corresponding to 100 µM 6m). Both the SUMO-STAT4 and the tag-free STAT4 preferentially precipitated under conditions containing polyethylene glycol. In one set of experiments, we also screened for conditions in the presence of the high-affinity peptide GY(PO3H2)LPQNID adapted from the IL-12 receptor. However, none of the conditions resulted in the growth of STAT4 crystals (Table S4).
# STAT4 [2] = biological target: T2, STAT4; assay: IL-12-induced STAT4 Tyr693 phosphorylation in NK-92 cells (Western blot); format: cell-based; set-up: utilizing cellular lysates from the STAT4‐expressing natural killer cell line NK‐92; endogenous in cells; host or cells: NK-92 (DSMZ); settings: treatment for 2 h (Figure S4)
# Description: as §1, §2, §3, §4, §5, §6, §7
structure (smiles),measurement,setting,value
O=P(O)(O)Oc1ccc(-c2ccc3ccccc3c2)cc1F [Compound 6m],Kd,wild‐type STAT4,1.3 ± 0.3 µM
O=P(O)(O)C(F)(F)c1ccc(-c2ccc3ccccc3c2)cc1F [Compound 8a],ΔT agg of STAT4,STAT4 [1],1.1 °C
same,T agg of STAT4 (average),STAT4 [1],49.8 ± 0.1 °C and 49.8 °C
same,Tagg (STAT4) 3 independent experiments,STAT4 [1],49.9 and 49.7 and 49.8
Cc1cc(-c2ccc(C(F)(F)P(=O)(O)O)c(F)c2)cs1 [Compound 8k],ΔT agg of STAT4,STAT4 [1],1.3 °C
same,T agg of STAT4 (average),STAT4 [1],50.0 ± 0.5 °C and 50.0 °C
same,Tagg (STAT4) 3 independent experiments,STAT4 [1],50.5 and 49.6 and 49.8
same,inhibition of IL‐12‐induced STAT4 Tyr693 phosphorylation,STAT4 [2],unable to inhibit; also recorded: does not inhibit
same,Kd,wild‐type STAT4,7.1 ± 1.1 µM
same,dissociation constant (ITC) relative to IC50 value in FP assays,"wild‐type STAT4; Kd (ITC) higher than IC50 (FP), STAT4",2 fold
